Reference: patent US20260294874A1, “COMPOSITIONS COMPRISING MODULATORS OF RIBONUCLEOPROTEIN GRANULE FORMATION AND DISSOLUTION AND METHODS OF USE THEREOF” (University of Virginia Patent Foundation, priority 2023, published 2026)
“Also recorded” adds a separate entry of the source. Values belong to the molecule of their own block, whether it stands above or below them.

Legend:
Assay type in all cases: cell-based
recombinant EDC3 = biological target: T1, recombinant EDC3 (Homo sapiens, UniProt Q96F86); test: Competitive gel-based ABPP, HHS-465 probe labeling of recombinant EDC3 in HEK293T cells; conditions: 25 μM, 2 h (FIG. 4F); 0.1-100 μM for concentration dependence (FIG. 4D); HHS-465 100 μM, 1 h, RT
T1 construct: FLAG; expressed in transfected cells; host or cells: HEK293T
T1 sequence (Q96F86 1-508): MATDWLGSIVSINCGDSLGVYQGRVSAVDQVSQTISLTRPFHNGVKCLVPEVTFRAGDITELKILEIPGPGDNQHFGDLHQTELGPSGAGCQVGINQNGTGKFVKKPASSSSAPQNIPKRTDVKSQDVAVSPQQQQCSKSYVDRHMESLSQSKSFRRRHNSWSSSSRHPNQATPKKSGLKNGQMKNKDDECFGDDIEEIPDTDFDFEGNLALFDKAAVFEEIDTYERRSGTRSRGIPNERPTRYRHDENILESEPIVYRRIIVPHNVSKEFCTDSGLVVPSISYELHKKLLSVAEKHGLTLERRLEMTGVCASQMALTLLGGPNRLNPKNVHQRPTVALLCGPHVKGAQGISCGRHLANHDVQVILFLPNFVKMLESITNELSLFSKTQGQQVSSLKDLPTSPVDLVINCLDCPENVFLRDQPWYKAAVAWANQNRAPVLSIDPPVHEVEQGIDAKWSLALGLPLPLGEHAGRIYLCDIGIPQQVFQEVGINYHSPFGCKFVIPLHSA
Excerpt: FIGS. 4A-4F. Discovery of a SuTEx ligand for the hyper-reactive EDC3 Y475 site. (FIG. 4A) Overlap of liganded sites from SuTEx PB modulators with reported RNA granule induction-sensitive lysine and tyrosine sites (RISKYs; Ciancone et al., 2022). The five overlapping sites were further compared to previously reported hyper-RISKY sites (Ciancone et al., 2022) resulting in the identification of the tyrosine-475 (Y475) site on EDC3. (FIG. 4B) Representative immunofluorescence images depicting decreased PBs and increased SGs in AHL-030-treated cells under stress conditions. EKT235 is shown as a negative control. See FIGS. 8 and 9 for additional details. (FIG. 4C) Representative MS1 extracted ion chromatograms (EICs) showing EDC3 Y475 (i.e., amino acid 2 of the peptide sequence […]; SEQ ID NO: 1, which corresponds to amino acids 474-500 of the human enhancer of mRNA-decapping protein 3 isoform 1 polypeptide of GENBANK® Accession No. NP_001135915.1) is liganded by AHL-030 but not EKT235 [SILAC ratio or SR>2 for DMSO vehicle (light, red)/SuTEx fragment ligand (heavy, blue) treatment conditions]. Enrichment (HHS-465/DMSO) and 1:1 (HHS-465/HHS-465) controls are shown. SRs are calculated as the integrated area under the curve ratio of light-to-heavy peptide. Data are representative of n=2-3 biologically independent replicates. […] EDC3-expressing HEK293T cells were pretreated with varying concentrations of AHL-030 (0.1-100 μM, 2 hours) followed by lysis and probe labeling of soluble proteomes with HHS-465 (100 μM, 1 h, RT). The in situ IC50 for EDC3 probe labeling inhibition by AHL-030 was estimated to be ~6 μM. […] Data shown are mean±SEM and representative of n=3 biologically independent replicates. […] Western blots comparing recombinant expression of EDC3 (α-FLAG) and loading controls (α-GAPDH) are shown. Data are representative of n=2 biologically independent replicates.
Among the candidate PB-modulating SuTEx compounds, we focused on AHL-030 because of its PB-inhibitory, SG-enhancing activity in stressed cells and ability to ligand the EDC3 Y475 site (SR >2; FIGS. 4B and 4C). Importantly, we identified a restricted number of reproducibly liganded sites (7 in total) in addition to EDC3 Y475 in chemoproteomic profiling studies of AHL-030 (FIG. 12). We further confirmed AHL-030 as an EDC3 ligand using competitive activity-based protein profiling (ABPP; Grams & Hsu, 2022). Recombinant EDC3-expressing HEK293T cells were treated with a panel of RNP granule modulators including AHL-030 and the negative control compound EKT235 to evaluate structure-activity relationships (SAR, 25 μM compounds, 2 h). Cells were lysed and soluble proteomes labeled with HHS-465 (100 μM, 1 h, RT) followed by CuAAC with rhodamine-azide, SDS-PAGE and in-gel fluorescence scanning. […] Using the in vitro IC50, we calculated the lipophilic efficiency (LipE) of AHL-030 to be ~7, which falls in the range of acceptable lipophilicity in relation to potency (Leeson & Springthorpe, 2007).

EDC3 Y475 = biological target: T2, EDC3 Y475 (Homo sapiens, UniProt Q96F86); test: Competitive ABPP SILAC LC-MS/MS chemical proteomics, EDC3 Y475; conditions: glucose-deprived HEK293T cells, 25 μM, 2 h
T2 sequence (Q96F86 1-508): T1 sequence (Q96F86 1-508)
Method: (§1) Preparation of SILAC proteomes for LC-MS/MS analysis. SILAC cell proteomes were fractionated to collect the supernatant and normalized to 2.3 mg/mL in PBS. ‘Heavy’ and ‘light’ proteomes were aliquoted (427 μL) and probe-modified proteins were conjugated to desthiobiotin-PEG-3-azide using copper-catalyze azide-alkyne cycloaddition, trypsinized into peptides using Trypsin/Lys-C Mix (Catalog No. V5071; Promega Corporation, Madison, Wisconsin, United States of America), enriched using PIERCE™ Avidin Agarose brand beads (Catalog No. 20219; Thermo Fisher Scientific Inc., Waltham, Massachusetts. United States of America), and prepared for nano-electrospray ionization-LC-MS/MS analysis as previously described in Hahm et al., 2020.
(§2) Data Analysis—Chemical Proteomics. Identification and analysis of peptides and proteins using LC-MS was accomplished using bioinformatics software and quality control parameter protocols as previously described in Hahm et al., 2020.
We performed quantitative liquid-chromatography tandem mass spectrometry (LC-MS/MS) chemical proteomic studies to identify the target protein and binding site(s) of SuTEx fragments with RNP granule modulating activity. […] SILAC light and heavy cells (HEK293T and HeLa) were treated with experimental conditions used for phenotypic screening including the SuTEx ligand pretreatment (25 μM, 2 h) followed by PB (glucose-deprivation, 15 min) and SG induction (75 μM [COMPOUND LEFT OUT], 30 min). Afterwards, cells were lysed, soluble proteomes treated with HHS-465 SuTEx probe (100 μM, 1 h), a global Tyr/Lys-reactive probe used previously for RNP granule investigations (Ciancone et al., 2022), and samples processed to probe-modified peptides for LC-MS/MS analysis as previously reported (Huang et al., 2021), shown in FIG. 10.
(§3) We detected ~8,700 probe-modified sites (Tyr and Lys) in our aggregate HeLa and HEK293T chemical proteomic analyses. […]

HSPB1 K123 = biological target: T3, HSPB1 K123 (Homo sapiens, UniProt P04792); test: Competitive ABPP SILAC LC-MS/MS chemical proteomics, HSPB1 K123; conditions: 25 μM, 2 h; HHS-465 100 μM; DMSO (light)/ligand (heavy)
T3 construct: endogenous in cells; host or cells: SILAC cells (HeLa and HEK293T are named; HeLa inferred for HSPB1/EKT179, as SG modulators were profiled in HeLa)
Method: as §1, §2
(§4) We performed quantitative liquid-chromatography tandem mass spectrometry (LC-MS/MS) chemical proteomic studies to identify the target protein and binding site(s) of SuTEx fragments with RNP granule modulating activity. […]
as §3

HNRPK Y72 = biological target: T4, HNRPK Y72 (Homo sapiens, UniProt P61978); test: Competitive ABPP SILAC LC-MS/MS chemical proteomics, HNRPK Y72; conditions: DMSO (light)/ligand (heavy)
T4 construct: liganded site Y72
Method: as §1, §2, §4, §3

[1] = system: stress granules (G3BP1 foci) in HeLa cells; test: Immunofluorescence phenotypic screen for stress granules (α-G3BP1) in stressed HeLa cells; conditions: 2 h
Method: SuTEx compound treatments. Prior to treatments, cells were washed twice with warm phosphate-buffered saline (PBS) and exchanged with serum-free DMEM (supplemented with 1% L-glutamine) for at least 30 minutes at 37° C. with 5% CO2. Compounds were then added as 1000×DMSO stocks (10 μL for 10 cm dishes and 3 μL for 6-well dishes), plates were mixed gently, and cells were incubated for two hours. All compounds were thoroughly vortexed and sonicated for five minutes prior to addition to ensure complete solvation. For microscopy experiments, cultures were seeded at 150,000 cells in 3 mL of DMEM in 6-well THERMO SCIENTIFIC™ BIOLITE™ brand microwell plates (Catalog No. 12556004; Thermo Fisher Scientific Inc., Waltham, Massachusetts. United States of America). For collection, media was aspirated, and cells were washed once with cold PBS before scraping from plates. Cells were centrifuged at 500×g at 4° C. for 5 minutes and supernatant was removed. Cell pellets were resuspended in cold PBS (1 mL) and centrifuged at 1,400×g at 4° C. for 3 minutes. Supernatant was again removed, and pellets were then snap-frozen in liquid nitrogen and stored at −80° C. until needed.
Immunofluorescence. Immunofluorescence (IF) of HEK293T cells was performed as previously described in Ciancone et al., 2022. HeLa cells were seeded at 9.0×10^4 in a 24-well plate with 12-mm glass coverslips. The next day, the cells were treated with 25 μM SuTEx probe for 2 hours in DMEM medium without FBS. The cells were then treated with 75 μM NaAsO2 for 30 minutes and fixed with 3% paraformaldehyde in PBS for 15 minutes at room temperature (RT) and washed with PBS twice. The fixed cells were permeabilized with PBST (0.1% Triton X-100) for 15 minutes at room temperature and blocked with 5% goat serum in PBST for 30 minutes at RT. The cells were incubated with anti-G3BP1 antibody H-10 (Catalog No. sc-365338 at 1:200 dilution; Santa Cruz Biotechnology, Inc., Dallas, Texas, United States of America) for 2 hours at RT and washed with PBST (0.1% Tween-20) for 5 minutes three times. Next, cells were incubated with goat anti-mouse Alexa 594 antibody (Catalog No. 115-585-003 at 1:800 dilution; Jackson ImmunoResearch, West Grove, Pennsylvania, United States of America) for 30 minutes at RT. The cells were washed twice with PBST, stained with Hoechst 33342 (Catalog No. H3570 at […]; Thermo Fischer Scientific) in PBST for 5 minutes, and washed with PBS twice for 5 minutes. The coverslips were mounted in PROLONG™ Gold AntiFade Mountant (Catalog No. P36930, Thermo Fisher Scientific) and imaged using NIS Elements AR software and a Nikon Eclipse Ti microscope equipped with a ×100 objective and CMOS camera. […] A CellProfiler pipeline was developed to quantify the number of stress granules under each condition. Briefly, cells were recognized as blue^+ (nuclei) red^+ (G3BP1) objects, and the red^+ granules that meet the shape and size threshold were identified and counted. Cells on the border of linages were excluded from the analysis for more accurate quantification.
We used immunofluorescence (IF) detection for phenotypic screening of SuTEx compound activity on stress-induced PB and SG levels in cells (FIG. 1B). PBs were induced through glucose deprivation of HEK293T cells and detected by immunofluorescence with anti-enhancer of mRNA-decapping protein 4 (EDC4) as previously described (Kedersha & Anderson, 2007; Ciancone et al., 2022) (~4 vs 2 PBs/cell in −glucose and +glucose conditions, respectively; FIG. 8). EDC4 is an established PB marker for mammalian cells and is important for PB formation (Kedersha & Anderson, 2007; Luo et al., 2018). SGs were induced in HeLa cells by [COMPOUND LEFT OUT] treatments and detected by fluorescent staining with anti-Ras GTPase-activating protein-binding protein 1 (G3BP1) antibody (75 μM [COMPOUND LEFT OUT], 30 min; FIG. 9). G3BP1 foci have been used in previous IF studies to identify SGs in cells (Kedersha & Anderson, 2007). […]

T3 sequence (P04792 whole entry): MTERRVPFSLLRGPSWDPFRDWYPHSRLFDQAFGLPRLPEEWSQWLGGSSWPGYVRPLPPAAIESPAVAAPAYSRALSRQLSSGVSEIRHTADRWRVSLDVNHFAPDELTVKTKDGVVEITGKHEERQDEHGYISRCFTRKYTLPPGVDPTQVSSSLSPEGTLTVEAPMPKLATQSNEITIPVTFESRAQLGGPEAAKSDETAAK

inhibition of HHS-465 probe labeling of recombinant EDC3 (in words) (recombinant EDC3): largely inactive | liganding of EDC3 Y475 (in words) (EDC3 Y475): not
Structure (SMILES): O=S(=O)(C1CC1)n1cc(-c2ccc(-c3ccccc3)cc2)nn1 [EKT235, 4-([1,1′-Biphenyl]-4-yl)-1-(cyclopropylsulfonyl)-1H-1,2,3-triazole]

SILAC ratio (SR), HSPB1 K123 (HSPB1 K123): > 2
Structure (SMILES): O=S(=O)(C1CC1)n1cc(-c2cccc(F)c2)nn1 [EKT179, 1-(Cyclopropylsulfonyl)-4-(3-fluorophenyl)-1H-1,2,3-triazole]

SILAC ratio (SR), HNRPK Y72 (HNRPK Y72): > 2
Structure (SMILES): O=S(=O)(c1ccc(C(F)(F)F)cc1)n1cc(-c2ccc(F)cc2F)nn1 [EKT166, 4-(2,4-Difluorophenyl)-1-((4-(trifluo•·omethyl)phenyl)sulfonyl)-1H-1,2,3-triazole]
effect on SGs (in words) ([1]; 25 μM): enriched activity; also recorded: inhibited SGs | inhibition at 25 µM ([1]; Homo sapiens, read-out: reduction/inhibition of SGs/cell): > 70%
